From patent US11351156B2, “Combination treatment of pancreatic cancer” (INSERM (Institut National de la Santé et de la Recherche …, priority 2017, dated 2022)
Where two headings read alike, the source gives them in different places.

Columns and labels:
[1] = test system: serum-induced phosphopeptides in Capan-1 cells; assay: SILAC phosphoproteomics of Capan-1 cells under PI3K inhibition; type: cell-based, human
Method: Light amino acid-labelled and heavy amino acid-labelled Capan-1 cells (respectively called thereafter “light” and “heavy” cells) were washed twice with phosphate buffer saline (PBS; SIGMA; D8537), trypsined (GE Healthcare; L11-002) and plated at a concentration of 2.5.10^6 cells in a 14.4 cm-diameter dish (Dutscher, 055063). After 48 h, cells were serum-starved during 16 h, over-night. Light and heavy cells were pre-treated respectively with inhibitors or their accordingly diluted vehicule (DMSO) during 1 h, then stimulated or not for 10 min or 24 h with 2% dialysed FBS. After 10 min and 24 h of FBS stimulation, heavy cells and light cells were maintained on ice, washed three times with cold PBS and lysed.
Cells were lysed on the plate with 2 mL of lysis buffer (Tris-HCl 100 mM-pH 7.8 (Sigma, T1503), SDS 1% (Sigma, L3771), EDTA 5 mM-pH7.8 (Euromedex, EU-0007-B), proteases and phosphatases inhibitors (Sigma) containing 1× cOmplete Roche proteases inhibitors cocktail (SIGMA, 04693132001), NaF 10 mM (Sigma, S1504), NaPPi 10 mM (Sigma, S6422) and Na3VO4 10 mM (Sigma, 450243)) during 30 min at 4° C. in dark. Cells were scraped, harvested and incubated 20 min at 57° C. To eliminate DNA-dependent viscosity, samples were sonicated (amplitude 40%, pulse 1 sec, interval 1 sec during 60 sec). Three other lysis buffers were also tested (Buffer 1: NH4HCO3 100 mM pH7.8, Urea 8M; Buffer 2: Tris-HCl 100 mM pH7.8, Urea 8M; Buffer 3/RIPA: Tris-HCl50 mM, NaCl 150 mM, Nonidet P-40 1% pH 7.8, SDS 0.1% (w/v)); the chosen buffer allowed the better extraction of phospho-tyrosine proteins as assessed by Western blotting with anti-pY (p-Tyr100) antibody (Cell Signaling Technology; 8954S) as compared to in gel 1-DE profile. Cell lysates were then cleared from insoluble fraction by centrifugation at 10,000×g for 15 min at 25° C., and protein concentration was measured by 2-D Quant kit (GE Healthcare, 80-6483-56). For each biological replicate, light and heavy lysates were mixed at a 1:1 ratio for a total amount of 6 mg.
Protein samples were reduced with 100 mM DTT (Sigma, D9163) for 35 min at 57° C. and then handled according to the FASP (Filter Aided Sample Preparation) digestion protocol using Amicon Ultra-15 Centrifugal Filter device (10 kDa cut-off, MILLIPORE, UFC901096). The 1st step consisted in the replacement of SDS by urea, then a dilution with UA buffer (Tris-HCl100 mM-pH 8.5, Urea 8M (Sigma, U5128)) and an alkylation with CAA solution (Tris-HCl 100 mM pH 8.5, Urea 8M, Chloroacetamide 50 mM (Sigma, CO267)). For optimization of trypsin efficiency, urea concentration was decreased at 200 mM with Ammonium Bicarbonate buffer (NH4HCO3 0.05M (SIGMA, 09830) and 10 mM phosphatase inhibitors as previously used in lysis buffer). In a 2nd step, Trypsin (Promega, V5117) digestion was performed at 1:50 (w/w) trypsin:protein ratio overnight at 37° C. on the Amicon Ultra-15 Centrifugal Filter. Tryptic peptides were acidified with 1% trifluoroacetic acid (TFA—Sigma, T6508), cleared at 5,000 rpm for 15 minutes at 15° C., and desalted using C18 Sep-Pak plus cartridges (Waters, WAT043395, 500 mg sorbent). Resin was conditioned with 15 mL in 80% Acetonitrile (ACN—Sigma, 34888) then equilibrated with 15 mL in 0.1% TFA. After the loading step, sample was washed with 15 mL in 0.1% TFA, and the elution was performed with 4 mL in 80% ACN, 0.1% TFA). Eluted peptides were lyophilized with a speed-vacuum over night.
Protocol for the enrichment with TiO2 beads is based on Larsen et al., [45] and Jensen et al.. […]

[2] = test system: pAkt; assay: Western blot of Akt phosphorylation in serum-starved, inhibitor-pretreated, stimulated Capan-1 cells; type: cell-based, human; details: for pS473 and pT308Akt levels: Capan-1, after 10 min stimulation with serum
Method: Pancreatic cancer cell were cultured consistent conditions. Eight hours after plating of cells, they were serum-starved during 16 h, over-night. Cells were pre-treated with inhibitors or their accordingly diluted vehicle (DMSO) during 1 h, then stimulated or not for 10 min or 24 h with 2% FBS, for 10 min with […] EGF, 100 nM Insulin, 50 ng/ml IGF-1, 1 μM LPA, 30 ng/ml PDGF, 200 nM S1P, 1× amino acids or 2 g/l glucose.
Cells were harvested on ice, washed twice with cold PBS, collected, and frozen at −80° C.

[3] = test system: KPC mouse model that rapidly develops PDAC; details: cited from earlier work; for tumour progression / tumour size: 12-week old KPC mice, 7 day-treated; for murine lethality / survival: treatment started at 8 weeks of age
[4] = test system: primary patient-derived PDAC cells; details: mouse, in vivo; cited from earlier work
[5] = test system: KPC pancreatic tumour; details: cited from earlier work
[6] = test system: BxPC-3 cancer cells xenografts; details: given after establishment of xenografts; cited from earlier work
[7] = test system: AZD6244-resistant tumours; details: added to AZD6244; cited from earlier work
[8] = test system: Panc1 cells and human primary Akt2-amplified pancreatic tumour cell; details: cited from earlier work
[9] = test system: gemcitabine-resistant metastatic pancreatic cancer; details: gemcitabine-resistant metastatic pancreatic cancer patients, cited from earlier work
[10] = test system: pancreatic cancer; details: standard of line chemotherapy; cited from earlier work

Cc1nc(NC(=O)N2CCC[C@H]2C(N)=O)sc1-c1csc(C(C)(C)C)n1 [A66]
number of serum-induced phosphopeptides changed ([1]; Capan-1, 10 min): 449
number of serum-induced phosphopeptides changed ([1]; Capan-1, 24 h): 404
pS473 and pT308Akt levels [2]: significantly inhibited
RTK-driven (EGF) short-term phosphorylation of Akt ([2]; EGF stimulation): inhibited
re-activation of pAkt upon long-term PI3K inhibition ([2]; serum stimulation, time course up to 48 h): prevents this re-activation of pAkt

O=C1NC(=O)/C(=C/c2ccc(-c3ccc(F)cc3O)o2)S1 [AS-252424]
number of serum-induced phosphopeptides changed ([1]; Capan-1, 10 min): 504
number of serum-induced phosphopeptides changed ([1]; Capan-1, 24 h): 404
pS473 and pT308Akt levels [2]: significantly inhibited
GPCR-driven (LPA) short-term phosphorylation of Akt ([2]; LPA stimulation): inhibited

Cn1cnc2c(F)c(Nc3ccc(Br)cc3Cl)c(C(=O)NOCCO)cc21 [AZD6244]
tumour progression / tumour size [3]: progressive disease
murine lethality / survival [3]: nearly no effect

Nc1cc(C(F)(F)F)c(-c2cc(N3CCOCC3)nc(N3CCOCC3)n2)cn1 [BKM120]
tumour progression / tumour size [3]: progressive disease
murine lethality / survival [3]: nearly no effect

CS(=O)(=O)N1CCN(Cc2cc3nc(-c4cccc5[nH]ncc45)nc(N4CCOCC4)c3s2)CC1 [GDC-0941]
response of orthotopic patient-derived PDAC [4]: responded the same way
disease status ([5]; 14 days after established tumours detection): stable disease
pancreatic tumour growth ([5]; KPC mice, 14 days): efficiently prevent
tumour volumes [6]: did not impair tumour volumes

O=c1cc(N2CCOCC2)oc2c(-c3ccccc3)cccc12 [LY-294002]
number of serum-induced phosphopeptides changed ([1]; Capan-1, 10 min): 427
number of serum-induced phosphopeptides changed ([1]; Capan-1, 24 h): 258

Cn1c(=O)n(-c2ccc(C(C)(C)C#N)cc2)c2c3cc(-c4cnc5ccccc5c4)ccc3ncc21 [NVP-BEZ235]
prevention of resistance to AZD6244 [7]: able to prevent this process
combination effect with panobinostat [8]: additive effect
tumour cell growth [8]: reduced

CO[C@H]1C[C@@H]2CC[C@@H](C)[C@@](O)(O2)C(=O)C(=O)N2CCCC[C@H]2C(=O)O[C@H]([C@H](C)C[C@@H]2CC[C@@H](OCCO)[C@H](OC)C2)CC(=O)[C@H](C)/C=C(\C)[C@@H](O)[C@@H](OC)C(=O)[C@H](C)C[C@H](C)/C=C/C=C/C=C/1C [RAD001]
clinical / therapeutic activity [9]: only a minimal clinical action
tolerability [9]: well tolerated
clinical / therapeutic activity ([9]; listed as Everolimus): failed to demonstrate the therapeutic activity

CO[C@H]1C[C@@H]2CC[C@@H](C)[C@@](O)(O2)C(=O)C(=O)N2CCCC[C@H]2C(=O)O[C@H]([C@H](C)C[C@@H]2CC[C@@H](O)[C@H](OC)C2)CC(=O)[C@H](C)/C=C(\C)[C@@H](O)[C@@H](OC)C(=O)[C@H](C)C[C@H](C)/C=C/C=C/C=C/1C [Sirolimus]
tolerability [9]: well tolerated

Cc1cc(C(C)Nc2ccccc2)c2nc(N3CCOCC3)cc(=O)n2c1 (stereo not shown) [TGX-221]
number of serum-induced phosphopeptides changed ([1]; Capan-1, 10 min): 436
number of serum-induced phosphopeptides changed ([1]; Capan-1, 24 h): 437
pS473 and pT308Akt levels [2]: significantly inhibited

CO[C@H]1C[C@@H]2CC[C@@H](C)[C@@](O)(O2)C(=O)C(=O)N2CCCC[C@H]2C(=O)O[C@H]([C@H](C)C[C@@H]2CC[C@@H](OC(=O)C(C)(CO)CO)[C@H](OC)C2)CC(=O)[C@H](C)/C=C(\C)[C@@H](O)[C@@H](OC)C(=O)[C@H](C)C[C@H](C)/C=C/C=C/C=C/1C [Temsirolimus]
clinical / therapeutic activity [9]: failed to demonstrate the therapeutic activity

Nc1ccn([C@@H]2O[C@H](CO)[C@@H](O)C2(F)F)c(=O)n1 [gemcitabine]
increase of patient survival [10]: only a few weeks
